Values after ≈ are worked out from the molar mass of the structure shown.
What was measured:
physchem [1] = settings: 25 °C, water
physchem [2] = assay: physchem
[3] = system: influenza virus (enveloped virus); type: cell-based
[4] = system: feline calicivirus (non-enveloped virus); type: cell-based

Structure (SMILES) | solubility (physchem [1]) | pKa (physchem [2]) | also measured
Nc1ccc(C(=O)O)cc1 [4-aminobenzoic acid] | 6000 µg/mL (≈ 43.8 mM) | – | –
O=C(O)CCCCC(=O)O [Adipic acid, adipic acid] | – | 4.34 | –
CCCCCCCCCCCCc1ccc(S(=O)(=O)[O-])cc1.[Na+] [Comparative example 2, sodium dodecylbenzene sulfonate] | – | – | Influenza virus: Antiviral activity value [3]: 2.0; Influenza virus: Virus infectivity titer common logarithmic value [3]: 4.5 PFU/cm^2; Feline calicivirus: Antiviral activity value [4]: 0.3; Feline calicivirus: Virus infectivity titer common logarithmic value [4]: 6.2 PFU/cm^2
O=C(O)CCCCC(=O)O [Comparative example 3, adipic acid] | – | – | Influenza virus: Antiviral activity value [3]: 1.7; Feline calicivirus: Antiviral activity value [4]: 0.5; Feline calicivirus: Virus infectivity titer common logarithmic value [4]: 6 PFU/cm^2
O=C(O)/C=C/C(=O)O [Fumaric acid, fumaric acid] | 6300 µg/mL (≈ 54.3 mM) | 3.02 | –
CCCCCCCCCCCC(=O)O [Lauric acid, lauric acid] | 4.8 µg/mL (≈ 0.024 mM) | 4.92 | –
CCCCCCCC/C=C\CCCCCCCC(=O)O [Oleic acid, oleic acid] | – | 5.35 | –
O=C(O)c1ccccc1C(=O)O [Phthalic acid, phthalic acid] | 7200 µg/mL (≈ 43.3 mM) | 2.94 | –
O=C(O)c1ccccc1O [Salicylic acid, salicylic acid] | 2000 µg/mL (≈ 14.5 mM) | – | –
CCCCCC(=O)O [caproic acid] | 11000 µg/mL (≈ 94.7 mM) | – | –
CCCCCCC(=O)O [enanthic acid] | 2400 µg/mL (≈ 18.4 mM) | – | –
O=C(O)c1cccc(C(=O)O)c1 [isophthalic acid] | 130 µg/mL (≈ 0.783 mM) | – | –
CCCCCCCCC(=O)O [pelargonic acid] | 280 µg/mL (≈ 1.77 mM) | – | –
O=C(O)c1ccc(C(=O)O)cc1 [terephthalic acid] | 17 µg/mL (≈ 0.102 mM) | – | –
